# In US20170105953A1, “METHOD FOR SUPPRESSING DIABETES AND/OR HEPATIC LIPIDS USING TORMENTIC ACID” (priority 2015, published 2017):
# Tests used:
# Assay type in all cases: in vivo
# [1] = blood parameters in high-fat diet-fed mice; conditions: HF diet-fed C57BL/6J mice, Rosi 0.01 g/kg/day oral gavage 4 weeks
# Method: For part 2, C57BL/6J mice (4 weeks old) were obtained from the National Laboratory Animal Breeding and Research Center. The mice were divided randomly into two groups after 7 days acclimation. […] The compositions of the experimental diets are given in previous studies. After 8 weeks, the high-fat treated mice were randomly subdivided into four groups (n=9) including PTA1 (0.06 g/kg/day), PTA2 (0.12 g/kg/day) or rosiglitazone (Rosi; 1% methylcellulose, 10 mg/kg body weight) (GlaxoSmithKline) or vehicle and treated by oral gavage one time per day from the 9th to 12th weeks, while the mice were still on the high-fat diet, whereas the CON and high-fat control (HF) mice were treated with vehicle only. At the end, food was withheld from the animals (from 10 p.m. to 10 a.m.). The next day, the mice were sacrificed for blood and tissue collection and analysis. Livers, skeletal muscles, and white adipose tissues (WATs) (including epididymal, mesenteric, and retroperitoneal WAT) were weighed and excised, followed by immediate freezing, and kept at −80° C. for target gene analysis. Heparin (30 units/mL) (Sigma) was added to blood samples. Plasma samples were collected within 30 min by centrifugation at 1600 g for 15 min at 4° C. Plasma was obtained for insulin and leptin assay.
# Blood samples (0.8 mL) were collected from the retro-orbital sinus of fasted mice, and the glucose level was analyzed by the glucose oxidase method (model 1500; Sidekick Glucose Analyzer; YSI Inc., Yellow Springs, Ohio, USA). Plasma triglycerides (TG), total cholesterol (TC), and free fatty acids (FFA) were measured using commercial assay kits according to the manufacturer's directions (Triglycerides-E test, Cholesterol-E test, and FFA-C test, Wako Pure Chemical, Osaka, Japan). The levels of insulin and leptin in blood were analyzed by ELISA using a commercial assay kit according to the manufacturer's directions (mouse insulin ELISA kit, Sibayagi, Gunma, Japan; and mouse leptin ELISA kit, Morinaga, Yokohama, Japan).
# [2] = hepatic lipids in high-fat diet-fed mice; conditions: HF diet-fed C57BL/6J mice, Rosi 0.01 g/kg/day oral gavage 4 weeks; mean ± SE, n=9
# Excerpt: (§1) For part 2, C57BL/6J mice (4 weeks old) were obtained from the National Laboratory Animal Breeding and Research Center. The mice were divided randomly into two groups after 7 days acclimation. The control (CON) group (n=9) was fed a low-fat diet (diet 12450B, Research Diets, Inc., New Brunswick, N.J., USA), whereas the experimental group was fed a 45% high-fat diet (diet 12451, Research Diets, Inc.) for 12 weeks. The compositions of the experimental diets are given in previous studies. After 8 weeks, the high-fat treated mice were randomly subdivided into four groups (n=9) including PTA1 (0.06 g/kg/day), PTA2 (0.12 g/kg/day) or rosiglitazone (Rosi; 1% methylcellulose, 10 mg/kg body weight) (GlaxoSmithKline) or vehicle and treated by oral gavage one time per day from the 9th to 12th weeks, while the mice were still on the high-fat diet, whereas the CON and high-fat control (HF) mice were treated with vehicle only. At the end, food was withheld from the animals (from 10 p.m. to 10 a.m.). The next day, the mice were sacrificed for blood and tissue collection and analysis. Livers, skeletal muscles, and white adipose tissues (WATs) (including epididymal, mesenteric, and retroperitoneal WAT) were weighed and excised, followed by immediate freezing, and kept at −80° C. for target gene analysis. Heparin (30 units/mL) (Sigma) was added to blood samples. Plasma samples were collected within 30 min by centrifugation at 1600 g for 15 min at 4° C. Plasma was obtained for insulin and leptin assay.
# Hepatic lipids were extracted using a previously described protocol. For the hepatic lipid extraction, 0.375 g liver samples were homogenized with 1 mL of distilled water for 5 min. Finally, the dried pellet was resuspended in 0.5 mL of ethanol and analyzed using a triglycerides kit as used for serum lipids.
# [3] = system: epididymal WAT and liver tissue; assay: histopathology of epididymal WAT and liver tissue; conditions: HF diet-fed C57BL/6J mice, Rosi 0.01 g/kg/day oral gavage 4 weeks
# Excerpt: as §1
# Small pieces of epididymal WAT and liver tissue were fixed with formalin (200 g/kg) neutral buffered solution and embedded in paraffin. Sections (8 μm) were cut and stained with hematoxylin and eosin. For microscopic examination, a microscope (Leica, DM2500) was used, and the images were taken using a Leica Digital camera (DFC-425-C).
compound,measurement,setting,value
"CN(CCOc1ccc(CC2SC(=O)NC2=O)cc1)c1ccccn1 (stereo not drawn) [Rosi, rosiglitazone, reference compound]",blood glucose,[1]; week 12,89.7 mg/dL
same,Blood profiles: FFA (plasma free fatty acid),"[1]; mean ± SE, n=9",1.85 ± 0.28 mequiv/L
same,Blood profiles: Insulin,"[1]; mean ± SE, n=9",56.4 ± 13.8 μU/mL
same,Blood profiles: Leptin,"[1]; mean ± SE, n=9",2.15 ± 0.099 ng/mL
same,Blood profiles: TC (total cholesterol),"[1]; mean ± SE, n=9",140.7 ± 14.1 mg/dL
same,Liver lipids: Total lipid,[2],74.7 ± 5.7 mg/g
same,Liver lipids: Triacylglycerol,[2],43.8 ± 4.7 µmol/g
same,average area of adipocytes (epididymal WAT),[3],4574.4±162.7 μm^2
same,hepatocellular ballooning mean score,"[3]; grade 0 none, 1 a few cells, 2 many cells",0.9±0.2
